# Laboratory results taken from ChEMBL document CHEMBL4308841, “Synthesis, in vitro antiproliferative activity, and kinase inhibitory effects of pyrazole-containing diarylureas and diarylamides” (Eur J Med Chem, 2018).
# Tested on: OVCAR-3
# Assay: Growth inhibition of human OVCAR3 cells assessed as cell growth at 0.1 uM incubated for 48 hrs by sulforhodamine B assay relative to control
# Assay type: functional
# Details: OVCAR-3, 48 h, read-out: Activity
row,Compound,growth at 0.1 µM [%]
1,COc1cc(Cl)cc(-c2nn(-c3cccc(NC(=O)Nc4cccc(C(F)(F)F)c4)c3)cc2-c2ccncc2)c1,98

# Tested on: UACC-257
# Assay: Growth inhibition of human UACC257 cells assessed as cell growth at 0.1 uM incubated for 48 hrs by sulforhodamine B assay relative to control
# Assay type: functional
# Details: UACC-257, 48 h, read-out: Activity
row,Compound,growth at 0.1 µM [%]
1,COc1cc(Cl)cc(-c2nn(-c3cccc(NC(=O)Nc4cccc(C(F)(F)F)c4)c3)cc2-c2ccncc2)c1,94

# Tested on: SF-539
# Assay: Growth inhibition of human SF539 cells incubated for 48 hrs by sulforhodamine B assay
# Assay type: functional, cell-based
# Details: SF-539, 48 h, read-out: GI50
row,Compound,GI50 [nM]
1,COc1cc(Cl)cc(-c2nn(-c3cccc(NC(=O)Nc4cccc(C(F)(F)F)c4)c3)cc2-c2ccncc2)c1,1000

# Same assay, conditions: SF-539, 48 h, read-out: LC50 (the source's name)
row,Compound,CC50 [µM]
1,COc1cc(Cl)cc(-c2nn(-c3cccc(NC(=O)Nc4cccc(C(F)(F)F)c4)c3)cc2-c2ccncc2)c1,21.1

# Same assay, conditions: SF-539, 48 h, read-out: TGI
row,Compound,TGI [µM]
1,COc1cc(Cl)cc(-c2nn(-c3cccc(NC(=O)Nc4cccc(C(F)(F)F)c4)c3)cc2-c2ccncc2)c1,45.2

# Same assay, conditions: SF-539, 48 h, read-out: pGI50 (converted)
row,Compound,GI50 [nM]
1,COc1cc(Cl)cc(-c2nn(-c3cccc(NC(=O)Nc4cccc(C(F)(F)F)c4)c3)cc2-c2ccncc2)c1,1910

# Same assay, conditions: SF-539, 48 h, read-out: pLC50 (the source's name) (converted)
row,Compound,CC50 [µM]
1,COc1cc(Cl)cc(-c2nn(-c3cccc(NC(=O)Nc4cccc(C(F)(F)F)c4)c3)cc2-c2ccncc2)c1,21.4

# Same assay, conditions: SF-539, 48 h, read-out: pTGI (converted)
row,Compound,TGI [µM]
1,COc1cc(Cl)cc(-c2nn(-c3cccc(NC(=O)Nc4cccc(C(F)(F)F)c4)c3)cc2-c2ccncc2)c1,4.79

# Tested on: HCT-116
# Assay: Growth inhibition of human HCT116 cells assessed as cell growth at 0.1 uM incubated for 48 hrs by sulforhodamine B assay relative to control
# Assay type: functional
# Details: HCT-116, 48 h, read-out: Activity
row,Compound,growth at 0.1 µM [%]
1,COc1cc(Cl)cc(-c2nn(-c3cccc(NC(=O)Nc4cccc(C(F)(F)F)c4)c3)cc2-c2ccncc2)c1,99

# Tested on: HOP-62
# Assay: Growth inhibition of human HOP62 cells assessed as cell growth at 1 uM incubated for 48 hrs by sulforhodamine B assay relative to control
# Assay type: functional
# Details: HOP-62, 48 h, read-out: Activity
row,Compound,growth at 1 µM [%]
1,COc1cc(Cl)cc(-c2nn(-c3cccc(NC(=O)Nc4cccc(C(F)(F)F)c4)c3)cc2-c2ccncc2)c1,85

# Tested on: HCT-15
# Assay: Growth inhibition of human HCT15 cells assessed as cell growth at 100 uM incubated for 48 hrs by sulforhodamine B assay relative to control
# Assay type: functional
# Details: HCT-15, 48 h, read-out: Activity
row,Compound,growth at 100 µM [%]
1,COc1cc(Cl)cc(-c2nn(-c3cccc(NC(=O)Nc4cccc(C(F)(F)F)c4)c3)cc2-c2ccncc2)c1,-72

# Tested on: RPMI-8226
# Assay: Growth inhibition of human RPMI8226 cells assessed as cell growth at 1 uM incubated for 48 hrs by sulforhodamine B assay relative to control
# Assay type: functional
# Details: RPMI-8226, 48 h, read-out: Activity
row,Compound,growth at 1 µM [%]
1,COc1cc(Cl)cc(-c2nn(-c3cccc(NC(=O)Nc4cccc(C(F)(F)F)c4)c3)cc2-c2ccncc2)c1,22

# Tested on: SF-295
# Assay: Growth inhibition of human SF295 cells assessed as cell growth at 1 uM incubated for 48 hrs by sulforhodamine B assay relative to control
# Assay type: functional
# Details: SF-295, 48 h, read-out: Activity
row,Compound,growth at 1 µM [%]
1,COc1cc(Cl)cc(-c2nn(-c3cccc(NC(=O)Nc4cccc(C(F)(F)F)c4)c3)cc2-c2ccncc2)c1,45

# Tested on: NCI-H226
# Assay: Growth inhibition of human NCI-H226 cells assessed as cell growth at 0.1 uM incubated for 48 hrs by sulforhodamine B assay relative to control
# Assay type: functional
# Details: NCI-H226, 48 h, read-out: Activity
row,Compound,growth at 0.1 µM [%]
1,COc1cc(Cl)cc(-c2nn(-c3cccc(NC(=O)Nc4cccc(C(F)(F)F)c4)c3)cc2-c2ccncc2)c1,95

# Tested on: U-251
# Assay: Growth inhibition of human U251 cells assessed as cell growth at 1 uM incubated for 48 hrs by sulforhodamine B assay relative to control
# Assay type: functional
# Details: U-251, 48 h, read-out: Activity
row,Compound,growth at 1 µM [%]
1,COc1cc(Cl)cc(-c2nn(-c3cccc(NC(=O)Nc4cccc(C(F)(F)F)c4)c3)cc2-c2ccncc2)c1,47

# Tested on: NCI-H460
# Assay: Growth inhibition of human NCI-H460 cells assessed as cell growth at 0.1 uM incubated for 48 hrs by sulforhodamine B assay relative to control
# Assay type: functional
# Details: NCI-H460, 48 h, read-out: Activity
row,Compound,growth at 0.1 µM [%]
1,COc1cc(Cl)cc(-c2nn(-c3cccc(NC(=O)Nc4cccc(C(F)(F)F)c4)c3)cc2-c2ccncc2)c1,102

# Tested on: Hs-578T
# Assay: Growth inhibition of human Hs578T cells assessed as cell growth at 1 uM incubated for 48 hrs by sulforhodamine B assay relative to control
# Assay type: functional
# Details: read-out: Activity
row,Compound,growth at 1 µM [%]
1,COc1cc(Cl)cc(-c2nn(-c3cccc(NC(=O)Nc4cccc(C(F)(F)F)c4)c3)cc2-c2ccncc2)c1,90

# Tested on: DU-145
# Assay: Growth inhibition of human DU145 cells incubated for 48 hrs by sulforhodamine B assay
# Assay type: functional, cell-based
# Details: DU-145, 48 h, read-out: GI50
row,Compound,GI50 [nM]
1,COc1cc(Cl)cc(-c2nn(-c3cccc(NC(=O)Nc4cccc(C(F)(F)F)c4)c3)cc2-c2ccncc2)c1,2610

# Same assay, conditions: DU-145, 48 h, read-out: LC50 (the source's name)
row,Compound,CC50 [µM]
1,COc1cc(Cl)cc(-c2nn(-c3cccc(NC(=O)Nc4cccc(C(F)(F)F)c4)c3)cc2-c2ccncc2)c1,> 100

# Same assay, conditions: DU-145, 48 h, read-out: TGI
row,Compound,TGI [µM]
1,COc1cc(Cl)cc(-c2nn(-c3cccc(NC(=O)Nc4cccc(C(F)(F)F)c4)c3)cc2-c2ccncc2)c1,> 100

# Same assay, conditions: DU-145, 48 h, read-out: pGI50 (converted)
row,Compound,GI50 [nM]
1,COc1cc(Cl)cc(-c2nn(-c3cccc(NC(=O)Nc4cccc(C(F)(F)F)c4)c3)cc2-c2ccncc2)c1,2630

# Same assay, conditions: DU-145, 48 h, read-out: pLC50 (the source's name) (converted)
row,Compound,CC50 [µM]
1,COc1cc(Cl)cc(-c2nn(-c3cccc(NC(=O)Nc4cccc(C(F)(F)F)c4)c3)cc2-c2ccncc2)c1,> 100

# Same assay, conditions: DU-145, 48 h, read-out: pTGI (converted)
row,Compound,TGI [µM]
1,COc1cc(Cl)cc(-c2nn(-c3cccc(NC(=O)Nc4cccc(C(F)(F)F)c4)c3)cc2-c2ccncc2)c1,> 100

# Tested on: SR
# Assay: Growth inhibition of human SR cells assessed as cell growth at 0.01 uM incubated for 48 hrs by sulforhodamine B assay relative to control
# Assay type: functional
# Details: read-out: Activity
row,Compound,growth at 0.01 µM [%]
1,COc1cc(Cl)cc(-c2nn(-c3cccc(NC(=O)Nc4cccc(C(F)(F)F)c4)c3)cc2-c2ccncc2)c1,89

# Tested on: OVCAR-3
# Assay: Growth inhibition of human OVCAR3 cells assessed as cell growth at 100 uM incubated for 48 hrs by sulforhodamine B assay relative to control
# Assay type: functional
# Details: OVCAR-3, 48 h, read-out: Activity
row,Compound,growth at 100 µM [%]
1,COc1cc(Cl)cc(-c2nn(-c3cccc(NC(=O)Nc4cccc(C(F)(F)F)c4)c3)cc2-c2ccncc2)c1,-41
